# Reference: ChEMBL document CHEMBL5096243, “Selective TASK-1 Inhibitor with a Defined Structure-Activity Relationship Reduces Cancer Cell Proliferation and Viability” (J Med Chem, 2022)
# Activity calls are given as the source filed them. The calls are words filed in the database; no cut-off is given here.
# Legend:
# [1] = target: T1, Potassium channel subfamily K member 3 (Homo sapiens, UniProt O14649); assay: Inhibition of human TASK-1 expressed in Xenopus laevis oocytes assessed as inhibition of channel current at +40mV holding potential by two-electrode voltage clamp assay; format: cell-based, Oocyte
# Target sequence in this assay (O14649 whole entry): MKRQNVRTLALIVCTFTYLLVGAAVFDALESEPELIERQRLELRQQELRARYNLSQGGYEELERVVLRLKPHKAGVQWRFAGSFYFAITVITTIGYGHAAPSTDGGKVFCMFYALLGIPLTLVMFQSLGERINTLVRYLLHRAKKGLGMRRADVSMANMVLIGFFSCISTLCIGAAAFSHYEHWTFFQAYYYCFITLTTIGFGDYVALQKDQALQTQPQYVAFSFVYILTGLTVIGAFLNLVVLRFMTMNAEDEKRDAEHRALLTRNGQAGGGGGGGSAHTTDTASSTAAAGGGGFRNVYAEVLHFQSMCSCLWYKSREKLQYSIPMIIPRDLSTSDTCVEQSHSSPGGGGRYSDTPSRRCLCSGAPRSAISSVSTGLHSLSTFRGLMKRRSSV
# [2] = target: T1, Potassium channel subfamily K member 3; assay: Inhibition of human TASK-1 expressed in Xenopus laevis oocytes assessed as inhibition of channel current at 10 uM at +40mV holding potential by two-electrode voltage clamp assay; format: cell-based; settings: Oocyte
# Target sequence in this assay (O14649 whole entry, looked up): as the sequence (O14649 whole entry) above
# [3] = target: T2, Potassium channel subfamily K member 9 (Homo sapiens, UniProt Q9NPC2); assay: Inhibition of human TASK-3 expressed in Xenopus laevis oocytes assessed as inhibition of channel current at 10 uM at +40mV holding potential by two-electrode voltage clamp assay; format: cell-based; settings: Oocyte
# [4] = target: T2, Potassium channel subfamily K member 9; assay: Inhibition of human TASK-3 expressed in Xenopus laevis oocytes assessed as inhibition of channel current at +40mV holding potential by two-electrode voltage clamp assay; format: cell-based, Oocyte
# [5] = test system: MCF7; assay: Antiproliferative activity against human MCF7 cells assessed as inhibition of cell proliferation at 10 uM incubated for 4 days by MTT assay; format: functional; set-up: scale not given: the % may be the effect or the level left; settings: time 4 day
# [6] = test system: MCF7; assay: Antiproliferative activity against human MCF7 cells with shBP9 induced TASK-3 knockdown assessed as inhibition of cell proliferation at 0.148 uM incubated for 48 to 72 hrs by trypan blue exclusion method; format: functional, cell-based; settings: time 48-72 hrs
# [7] = test system: MCF7; assay: Antiproliferative activity against human MCF7 cells with shBP3 induced TASK-1 knockdown assessed as inhibition of cell proliferation at 0.148 uM incubated for 24 to 72 hrs by trypan blue exclusion method; format: functional, cell-based; settings: time 24-72 hrs
# [8] = test system: MCF7; assay: Antiproliferative activity against human MCF7 cells with wild type TASK-1 expressing GFP induced by shGFP assessed as inhibition of cell proliferation at 0.148 uM incubated for 24 to 72 hrs by trypan blue exclusion method; format: functional, cell-based; settings: time 24-72 hrs
# T2 sequence (Q9NPC2 whole entry): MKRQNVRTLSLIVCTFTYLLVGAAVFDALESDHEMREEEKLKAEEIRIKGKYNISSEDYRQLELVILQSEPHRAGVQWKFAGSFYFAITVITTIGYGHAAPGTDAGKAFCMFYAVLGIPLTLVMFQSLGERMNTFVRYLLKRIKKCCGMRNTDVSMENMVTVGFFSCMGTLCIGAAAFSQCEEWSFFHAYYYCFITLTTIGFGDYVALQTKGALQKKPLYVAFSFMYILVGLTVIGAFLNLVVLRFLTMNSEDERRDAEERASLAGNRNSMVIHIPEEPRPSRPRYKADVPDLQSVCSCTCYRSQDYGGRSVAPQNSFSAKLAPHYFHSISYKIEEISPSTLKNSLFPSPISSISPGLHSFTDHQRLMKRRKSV
IC50 [1] [µM],inhibition [2],inhibition [3],Structure (SMILES),other results
9.5,,,O=C(c1ccccc1F)N1CCN(Cc2c(-c3ccc(Br)cc3)nc3ccccn23)CC1,
,25%,,O=C(Nc1cccc(C(=O)Nc2ccc(F)cc2)c1)c1ccccc1,
,10%,,COc1ccc(NC(=O)c2cccc(NC(=O)c3ccccc3)c2)cc1,
0.2,,,CCCS(=O)(=O)Nc1ccccc1C(=O)N[C@H](CC)c1ccc(OC)nc1,
,Active,Active,O=C(Nc1cccc(C(=O)Nc2ncccc2O)c1)c1ccccc1,
0.388,Active,Active,O=C(Nc1cccc(C(=O)Nc2nccs2)c1)c1ccccc1,IC50 [4]: 7.17 µM
7.6,,,O=C(c1cccc(OC(F)(F)F)n1)N1CCN(Cc2c(-c3ccc(Cl)cc3)nc3ccccn23)CC1,
0.148,Active,Active,CCc1ccccc1NC(=O)c1cccc(NC(=O)c2ccccc2)c1,Activity [5]: 45%; IC50 [4]: 1.75 µM; Activity [6]: Active; Activity [7]: Active; Activity [8]: Active
,Active,Active,O=C(NCc1ccccc1)c1cccc(NC(=O)c2ccccc2)c1,
